Results reported in patent US10099993B2, “Metabotropic glutamate receptor positive allosteric modulators (PAMS) and uses thereof” (Sanford-Burnham Medical Research Institute, priority 2014, dated 2018).

How the values were obtained:
[1] = format: in vitro ADME; settings: rat, 1 h
[2] = 100 μM, pH 7.2
[3] = rat, microsomes, 1 h
Muscarinic M4 = Muscarinic M4 (Homo sapiens (Human), UniProt P08173); assay: PDSP radioligand binding; settings: Muscarinic M4, 10 μM, displacement of radioligand
Muscarinic M2 = Muscarinic M2 (Homo sapiens (Human), UniProt P08172); assay: PDSP radioligand binding; settings: Muscarinic M2, 10 μM, displacement of radioligand
Dopamine D5 = Dopamine D5 (Homo sapiens (Human), UniProt P21918); assay: PDSP radioligand binding; settings: Dopamine D5, 10 μM, displacement of radioligand
mGlu7 = mGlu7 (Rattus norvegicus (Rat), UniProt P35400); assay: mGlu7 GIRK thallium flux assay; format: cell-based; settings: full L-AP4 concentration-response ± 10 μM compound
[4] = In vivo PK in rats, i.p. administration; settings: rats, i.p., 10 mg/kg, Tmax 30 min
Adrenergic α2C = Adrenergic α2C (Homo sapiens (Human), UniProt P18825); assay: PDSP radioligand binding; settings: displacement of radioligand
mGlu5 = mGlu5 (Rattus norvegicus (Rat), UniProt P31424); assay: mGlu5 calcium assay; format: cell-based; settings: full agonist concentration-response ± 10 μM compound
mGlu3 = mGlu3 (Rattus norvegicus (Rat), UniProt P31422); assay: mGlu3 GIRK thallium flux assay; settings: for General activity at mGlu3: full agonist concentration-response ± 10 μM compound;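 on all read-outs here: kinetic fluorescence slope read shortly after thallium plus agonist addition, scaled between vehicle and maximal agonist control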
[5] = biological target: Peripheral benzodiazepine receptor ([3H]PK11195) (Rattus norvegicus (Rat), UniProt P16257); assay: PDSP radioligand binding
mGlu6 = mGlu6 (Rattus norvegicus (Rat), UniProt P35349); assay: mGlu6 GIRK thallium flux assay; format: cell-based; settings: full agonist concentration-response ± 10 μM compound
[6] = biological target: Transporter, Serotonin (5-Hydroxytryptamine) (SERT) (Homo sapiens (Human), UniProt P31645); assay: PDSP radioligand binding; settings: displacement of radioligand
mGlu1 = mGlu1 (Rattus norvegicus (Rat), UniProt P23385); assay: mGlu1 calcium assay; format: cell-based; settings: full agonist concentration-response ± 10 μM compound
forty-five CNS receptors = assay: CNS receptors panel (NIMH PDSP), radioligand binding; settings: 10 μM
[7] = biological target: Serotonin (5-Hydroxytryptamine) 5-HT2A (Homo sapiens (Human), UniProt P28223); assay: PDSP radioligand binding; settings: displacement of radioligand
mGlu4 = mGlu4 (Rattus norvegicus (Rat), UniProt P31423); assay: mGlu4 GIRK thallium flux assay; format: cell-based; settings: full agonist concentration-response ± 10 μM compound
Histamine H1 = Histamine H1 (Homo sapiens (Human), UniProt P35367); assay: PDSP radioligand binding; settings: Histamine H1, 10 μM, displacement of radioligand
mGlu8 = mGlu8 (Rattus norvegicus (Rat), UniProt P70579); assay: mGlu8 GIRK thallium flux assay; format: cell-based; settings: full agonist concentration-response ± 10 μM compound
Dopamine D2 = Dopamine D2 (Homo sapiens (Human), UniProt P14416); assay: PDSP radioligand binding; settings: Dopamine D2, 10 μM, displacement of radioligand
mGlu2 = mGlu2 (Rattus norvegicus (Rat), UniProt P31421); assay: mGlu2 GIRK thallium flux assay;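 further: Cell-based assay, rate of fluorescence rise right after thallium plus agonist addition read on a kinetic imaging plate reader, normalized to vehicle and maximal agonist control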
[8] = rat, in vivo, ip, 10 mg/kg

Chain of mGlu3 (P31422 23-879): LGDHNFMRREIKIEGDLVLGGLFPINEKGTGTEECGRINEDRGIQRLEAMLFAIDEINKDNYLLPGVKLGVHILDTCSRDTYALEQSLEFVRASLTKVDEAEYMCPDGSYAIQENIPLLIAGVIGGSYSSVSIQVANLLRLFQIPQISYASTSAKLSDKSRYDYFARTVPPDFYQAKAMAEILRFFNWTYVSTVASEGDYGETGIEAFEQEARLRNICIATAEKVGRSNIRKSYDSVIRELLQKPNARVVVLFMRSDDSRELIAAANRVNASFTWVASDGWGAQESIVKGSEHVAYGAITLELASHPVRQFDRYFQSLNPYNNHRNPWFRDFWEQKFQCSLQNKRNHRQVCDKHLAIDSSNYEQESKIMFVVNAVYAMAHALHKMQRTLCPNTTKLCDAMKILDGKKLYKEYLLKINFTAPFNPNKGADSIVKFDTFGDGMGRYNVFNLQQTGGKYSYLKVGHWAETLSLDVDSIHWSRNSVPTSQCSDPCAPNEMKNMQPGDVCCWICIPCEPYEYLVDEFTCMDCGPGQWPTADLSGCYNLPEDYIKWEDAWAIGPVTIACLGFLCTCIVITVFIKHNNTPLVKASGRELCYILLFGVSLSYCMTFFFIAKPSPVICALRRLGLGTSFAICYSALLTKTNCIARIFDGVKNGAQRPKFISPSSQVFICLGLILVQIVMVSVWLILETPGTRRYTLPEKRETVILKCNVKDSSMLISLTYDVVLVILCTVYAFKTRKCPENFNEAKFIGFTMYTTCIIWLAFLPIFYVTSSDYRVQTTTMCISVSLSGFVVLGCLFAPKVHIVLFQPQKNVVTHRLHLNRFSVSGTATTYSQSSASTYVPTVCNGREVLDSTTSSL
Chain of mGlu5 (P31424 21-1203): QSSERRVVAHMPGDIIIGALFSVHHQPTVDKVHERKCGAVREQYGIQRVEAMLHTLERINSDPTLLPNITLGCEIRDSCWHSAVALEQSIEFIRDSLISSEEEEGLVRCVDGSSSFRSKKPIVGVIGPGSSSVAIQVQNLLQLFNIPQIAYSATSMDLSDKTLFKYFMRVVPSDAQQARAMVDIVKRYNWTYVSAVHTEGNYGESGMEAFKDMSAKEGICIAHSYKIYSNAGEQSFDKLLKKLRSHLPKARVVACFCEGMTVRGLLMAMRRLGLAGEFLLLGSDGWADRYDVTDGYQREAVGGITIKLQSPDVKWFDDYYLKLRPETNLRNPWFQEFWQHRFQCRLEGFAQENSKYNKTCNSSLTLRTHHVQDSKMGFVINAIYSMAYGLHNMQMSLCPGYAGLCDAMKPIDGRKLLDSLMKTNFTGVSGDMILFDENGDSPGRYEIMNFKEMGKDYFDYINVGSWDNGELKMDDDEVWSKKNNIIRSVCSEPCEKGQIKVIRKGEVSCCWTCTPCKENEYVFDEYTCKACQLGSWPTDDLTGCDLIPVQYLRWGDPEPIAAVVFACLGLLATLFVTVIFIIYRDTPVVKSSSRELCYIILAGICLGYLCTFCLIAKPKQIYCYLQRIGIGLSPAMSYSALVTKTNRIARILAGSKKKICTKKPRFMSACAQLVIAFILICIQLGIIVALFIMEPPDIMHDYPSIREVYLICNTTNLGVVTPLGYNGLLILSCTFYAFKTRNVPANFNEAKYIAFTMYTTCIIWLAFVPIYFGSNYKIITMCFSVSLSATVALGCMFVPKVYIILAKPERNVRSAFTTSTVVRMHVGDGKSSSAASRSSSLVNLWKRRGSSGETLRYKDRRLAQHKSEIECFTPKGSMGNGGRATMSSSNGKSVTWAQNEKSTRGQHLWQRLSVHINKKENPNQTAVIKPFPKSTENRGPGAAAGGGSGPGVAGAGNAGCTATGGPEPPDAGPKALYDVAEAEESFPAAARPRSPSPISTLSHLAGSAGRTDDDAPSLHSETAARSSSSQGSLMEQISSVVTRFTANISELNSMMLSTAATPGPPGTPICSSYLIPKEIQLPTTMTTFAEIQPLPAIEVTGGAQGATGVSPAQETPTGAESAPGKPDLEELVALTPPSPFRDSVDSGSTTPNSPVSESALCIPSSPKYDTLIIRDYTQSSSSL
Chain of mGlu4 (P31423 33-912): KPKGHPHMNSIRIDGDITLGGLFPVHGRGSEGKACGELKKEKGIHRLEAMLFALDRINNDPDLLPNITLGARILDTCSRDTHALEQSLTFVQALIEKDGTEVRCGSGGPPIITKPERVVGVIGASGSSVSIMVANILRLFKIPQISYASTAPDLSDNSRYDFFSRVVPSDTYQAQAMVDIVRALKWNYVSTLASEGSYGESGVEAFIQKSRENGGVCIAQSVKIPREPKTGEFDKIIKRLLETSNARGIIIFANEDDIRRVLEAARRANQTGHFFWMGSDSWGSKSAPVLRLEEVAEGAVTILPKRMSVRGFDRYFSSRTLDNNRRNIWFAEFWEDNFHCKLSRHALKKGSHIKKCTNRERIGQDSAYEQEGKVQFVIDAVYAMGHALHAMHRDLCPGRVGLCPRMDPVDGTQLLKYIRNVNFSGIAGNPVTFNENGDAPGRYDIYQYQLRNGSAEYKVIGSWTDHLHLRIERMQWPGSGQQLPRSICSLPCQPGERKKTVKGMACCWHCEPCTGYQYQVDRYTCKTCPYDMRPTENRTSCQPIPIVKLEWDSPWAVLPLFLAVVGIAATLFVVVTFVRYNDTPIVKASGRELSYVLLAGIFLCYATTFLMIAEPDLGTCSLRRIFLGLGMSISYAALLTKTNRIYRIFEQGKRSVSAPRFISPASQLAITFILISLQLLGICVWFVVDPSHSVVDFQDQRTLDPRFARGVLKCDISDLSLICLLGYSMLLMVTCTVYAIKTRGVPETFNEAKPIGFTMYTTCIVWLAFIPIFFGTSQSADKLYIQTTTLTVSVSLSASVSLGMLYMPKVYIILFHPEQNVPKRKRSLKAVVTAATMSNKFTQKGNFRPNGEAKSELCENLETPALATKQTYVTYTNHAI
Chain of mGlu8 (P70579 34-908): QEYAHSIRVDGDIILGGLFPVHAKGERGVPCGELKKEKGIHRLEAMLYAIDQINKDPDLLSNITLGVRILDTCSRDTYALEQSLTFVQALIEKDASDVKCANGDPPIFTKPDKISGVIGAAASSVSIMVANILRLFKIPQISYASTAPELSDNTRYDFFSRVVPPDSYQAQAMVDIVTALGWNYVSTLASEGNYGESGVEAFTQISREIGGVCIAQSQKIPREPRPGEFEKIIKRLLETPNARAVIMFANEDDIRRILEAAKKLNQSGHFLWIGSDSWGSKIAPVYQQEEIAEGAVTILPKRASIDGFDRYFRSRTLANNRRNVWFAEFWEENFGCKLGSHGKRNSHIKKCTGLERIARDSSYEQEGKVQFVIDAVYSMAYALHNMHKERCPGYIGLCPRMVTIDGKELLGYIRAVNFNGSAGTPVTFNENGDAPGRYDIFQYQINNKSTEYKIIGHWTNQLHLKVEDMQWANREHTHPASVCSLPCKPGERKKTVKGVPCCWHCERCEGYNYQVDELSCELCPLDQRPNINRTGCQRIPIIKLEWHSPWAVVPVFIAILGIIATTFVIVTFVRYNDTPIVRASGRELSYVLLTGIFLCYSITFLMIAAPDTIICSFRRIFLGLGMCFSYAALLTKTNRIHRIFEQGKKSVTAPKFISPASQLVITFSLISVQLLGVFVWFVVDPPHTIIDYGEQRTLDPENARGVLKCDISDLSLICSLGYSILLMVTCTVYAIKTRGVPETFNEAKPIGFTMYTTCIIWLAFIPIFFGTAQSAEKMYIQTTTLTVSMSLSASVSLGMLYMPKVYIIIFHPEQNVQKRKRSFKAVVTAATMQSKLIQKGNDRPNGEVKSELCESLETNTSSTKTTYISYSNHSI
Chain of mGlu1 (P23385 19-1199): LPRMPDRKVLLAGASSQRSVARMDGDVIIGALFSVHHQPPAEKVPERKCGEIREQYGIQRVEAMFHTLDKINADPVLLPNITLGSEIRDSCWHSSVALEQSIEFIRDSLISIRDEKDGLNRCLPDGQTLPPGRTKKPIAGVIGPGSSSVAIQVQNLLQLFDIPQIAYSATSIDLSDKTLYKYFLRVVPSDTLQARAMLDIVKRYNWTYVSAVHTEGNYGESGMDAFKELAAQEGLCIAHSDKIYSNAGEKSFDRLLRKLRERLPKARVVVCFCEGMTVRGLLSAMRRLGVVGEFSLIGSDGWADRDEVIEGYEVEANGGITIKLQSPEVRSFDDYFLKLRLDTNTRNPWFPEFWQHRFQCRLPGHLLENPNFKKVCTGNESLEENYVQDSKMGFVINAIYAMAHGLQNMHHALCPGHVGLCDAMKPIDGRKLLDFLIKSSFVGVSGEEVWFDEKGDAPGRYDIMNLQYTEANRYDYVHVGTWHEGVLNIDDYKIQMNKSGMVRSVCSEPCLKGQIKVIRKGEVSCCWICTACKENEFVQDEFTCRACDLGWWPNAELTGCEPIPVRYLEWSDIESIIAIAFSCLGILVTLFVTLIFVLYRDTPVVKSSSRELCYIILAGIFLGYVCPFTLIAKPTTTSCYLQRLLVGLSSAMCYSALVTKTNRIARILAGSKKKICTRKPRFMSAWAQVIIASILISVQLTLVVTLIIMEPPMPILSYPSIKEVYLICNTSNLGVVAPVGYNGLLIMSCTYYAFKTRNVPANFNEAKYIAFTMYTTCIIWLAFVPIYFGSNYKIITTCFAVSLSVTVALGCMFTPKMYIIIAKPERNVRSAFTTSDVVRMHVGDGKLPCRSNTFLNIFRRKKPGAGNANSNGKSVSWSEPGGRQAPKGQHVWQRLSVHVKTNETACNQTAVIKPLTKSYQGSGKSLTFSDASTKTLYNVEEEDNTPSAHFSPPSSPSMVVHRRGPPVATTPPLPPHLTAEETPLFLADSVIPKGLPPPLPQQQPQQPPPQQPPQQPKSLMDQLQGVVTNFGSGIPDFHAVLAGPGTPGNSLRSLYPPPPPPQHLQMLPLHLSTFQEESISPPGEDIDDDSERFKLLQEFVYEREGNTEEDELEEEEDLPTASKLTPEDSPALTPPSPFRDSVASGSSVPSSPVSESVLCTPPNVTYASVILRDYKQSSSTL

COc1cc(C(=O)O)ccc1OCCCCOc1ccc(C(=O)CC2CCCC2)c(O)c1C [Compound 45, 4-{4-[4-(2-Cyclopentylacetyl)-3-hydroxy-2-methylphenoxy]butoxy}-methoxybenzoic acid]
Plasma Stability, percent remaining [1]: 100% | PAMPA (LogPapp) [2]: −6.54 | Microsomal stability, percent remaining [3]: 31%

COc1ccc(C(=O)O)cc1OCCCCOc1ccc(C(=O)CC(C)(C)C)c(O)c1C [compound 72, 3-(4-(4-(3,3-Dimethylbutanoyl)-3-hydroxy-2-methylphenoxy)butoxy)-4-methoxybenzoic acid]
inhibition at 10 µM (Muscarinic M4): -0.9% | inhibition at 10 µM (Muscarinic M2): -1% | inhibition at 10 µM (Dopamine D5): -0.9% | General activity at mGlu7 (mGlu7): inactive^b | Plasma, maximum concentration [4]: 2.44 ± 2.19 µM | inhibition at 10 µM (Adrenergic α2C): 0.6% | General activity at mGlu5 (mGlu5): inactive^b | General activity at mGlu3 (mGlu3): Ago-PAM | Emin, minimal response of the concentration-response of agonist (mGlu3; mGlu3, 10 μM compound): Emin = 54% | inhibition at 10 µM [5]: 1% | General activity at mGlu6 (mGlu6): inactive^b | inhibition at 10 µM [6]: 0.3% | General activity at mGlu1 (mGlu1): inactive^b | binding activity at forty-five CNS receptors (forty-five CNS receptors): no binding activity was detected | inhibition at 10 µM [7]: -0.6% | General activity at mGlu4 (mGlu4): inactive^b | inhibition at 10 µM (Histamine H1): 0.2% | General activity at mGlu8 (mGlu8): inactive^b | inhibition at 10 µM (Dopamine D2): 1% | General activity at mGlu2 (mGlu2; full agonist concentration-response ± 10 μM compound): Ago-PAM | Emin, minimal response of the concentration-response of agonist (mGlu2; mGlu2, 10 μM compound): Emin = 72%

COc1cc(C(=O)O)ccc1OCCCCOc1ccc(C(=O)CC(C)(C)C)c(O)c1C [compound 73]
PAMPA (LogPapp) [2]: −5.46 | General activity at mGlu7 (mGlu7): inactive^b | Brain: Plasma [8]: 0.02 ± 0.01 | General activity at mGlu5 (mGlu5): inactive^b | General activity at mGlu3 (mGlu3): Ago-PAM | General activity at mGlu6 (mGlu6): PAM | General activity at mGlu1 (mGlu1): inactive^b | General activity at mGlu4 (mGlu4): inactive^b | General activity at mGlu8 (mGlu8): inactive^b
